Assay in all cases: growth of human tumour cells (NCI), 48 h
Assay [1] concerns HOP-92 NSCLC.
The test system of assay [2] is DU-145 prostate.
Assay [3] deals with IGROV1 ovarian.
Assay [4] concerns OVCAR-4 ovarian.
In assay [5] the test system is MDA-MB-435.
Assay [6] has as its system BT-549 breast.
In assay [7] the test system is RXF 393 renal.
In assay [8] the test system is UO-31 renal.
Assay [9] relates to HT29 colon.
Assay [10] relates to M14 melanoma.

From PubChem BioAssay (NCI) come the findings set out here.

Where “and” joins values, the source holds several entries; their conditions need not be identical. Equal entries are not always repeated.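 Assay format: 96-well plates, 48-hour exposure. GI50 is the concentration that inhibits growth by half. TGI denotes the concentration required for complete inhibition of growth.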

Turning to `C#CCOc1cccc(-c2ncnc3cc(NC(=O)CCl)ccc23)c1`, the GI50 in assay [1] is 1420 nM; in [2], 1160 nM; in assay [3], 61.2 nM; in assay [4], 1200 nM; in [5], 993 nM; in [6], 849 nM. Also, the GI50 in assay [7] is 1400 nM; in assay [8], 360 nM; in assay [9], 50.2 nM; in [10] it was 660 nM. Besides, the TGI in assay [1] worked out at 3320 nM; in assay [2] it was 2470 nM; in [3] it was 1920 nM; in [4] it was 2590 nM; in assay [5], 2920 nM; in assay [6], 2310 nM. Further, the TGI in assay [7] came out at 3160 nM; in assay [8] it was 2100 nM; in assay [9], 1490 nM; in assay [10], 2640 nM.

With `Fc1ccc2[nH]cc(-c3nonc3-c3c[nH]c4ccc(Br)cc34)c2c1`, the GI50 in assay [1] was 1970 nM; in assay [2] it was 3570 nM; in assay [3], 3410 nM; in [4] it was 3450 nM; in assay [5], 3270 nM; in assay [6], 3380 nM. The GI50 in assay [7] is 2850 nM; in assay [8], 1390 nM; in assay [9], 2010 nM; in assay [10], 1870 nM. The TGI stood at 5520 nM in [1]; 13200 nM in assay [2]; 18300 nM in assay [3]; 18500 nM in [4]; 12300 nM in [5]; 15000 nM in [6]. In addition, the TGI in [7] is 8750 nM; in assay [8] it was 4360 nM; in assay [9], 4030 nM; in assay [10], 4980 nM.

On to `COc1ccc(C(=O)/C=C/c2ccc(C)cc2)cc1OC`, for which the GI50 in assay [1] was 12600 nM; in [2], 3200 nM; in assay [3], 12300 nM; in [4] it was 12200 nM; in assay [5] it was 15500 nM; in assay [6] it was 14900 nM. Also, the GI50 in [7] was 12200 nM; in assay [8], 11000 nM; in [9], 3930 nM; in assay [10], 13700 nM. Also, the TGI was 27000 nM in assay [1]; 14400 nM in assay [2]; 58600 nM in [3]; 24700 nM in assay [4]; 32000 nM in assay [5]; 51500 nM in assay [6]. Besides, the TGI in assay [7] is 26400 nM; in assay [8], 26800 nM; in assay [9], 15300 nM; in assay [10], 26500 nM.

On to `Cc1ccc(S(=O)(=O)NC(=O)C2C(=O)CC3(CCCCC3)CC2=O)cc1`, for which the TGI in [1] was 45600 nM; in [2] it was greater than 100000 nM; in assay [3], 71100 nM; in [4] it was greater than 100000 nM; in assay [5], greater than 100000 nM; in assay [6], 75000 nM. The TGI was greater than 100000 nM in assay [7], 60400 nM in assay [8], 92500 nM in assay [9] and greater than 100000 nM in assay [10].

Regarding `FC(F)c1nc2ccccc2n1-c1nc(N2CCOCC2)nc(N2CCOCC2)n1`, the GI50 is 48.6 nM and 54.8 nM in [1]; 420 nM and 432 nM in [2]; 62.1 nM and 165 nM in [3]; 797 nM and 475 nM in assay [4]; 397 nM and 429 nM in [5]; 99.2 nM and 145 nM in assay [6]. Further, the GI50 was 96.4 nM and 138 nM in [7]; 46 nM and 103 nM in assay [8]; 238 nM and 370 nM in assay [9]; 566 nM and 464 nM in assay [10]. Moreover, the TGI is 382 nM and 551 nM in assay [1]; greater than 100000 nM in assay [2]; 369 nM and 593 nM in [3]; 6870 nM and 5390 nM in assay [4]; 1260 nM and 3970 nM in [6]; 625 nM and 674 nM in [7]. Further, the TGI in assay [8] is 835 nM and 1380 nM; in assay [9] it was greater than 100000 nM.

Take `C=C1C(=O)O[C@@H]2C[C@@H](C)[C@@H]3C=CC(=O)[C@@]3(C)[C@@H](OC(=O)CC(=O)O[C@H]3[C@@H]4C(=C)C(=O)O[C@@H]4C[C@@H](C)[C@@H]4C=CC(=O)[C@]43C)[C@H]12`: the TGI in assay [1] is 74.6 nM; in assay [2], 12900 nM; in [3], 595 nM; in assay [4] it was 140 nM; in assay [5], 144 nM; in assay [6], 161 nM. Further, the TGI is 25.8 nM in [7], 271 nM in [8], 223 nM in assay [9] and 84.5 nM in [10].

As to `CCOC(=O)N1CCN(c2nc(Nc3cc(C)[nH]n3)c3ccccc3n2)CC1`, the GI50 is 1920 nM in [1]; 3890 nM in assay [2]; 638 nM in assay [3]; 4040 nM in assay [4]; 829 nM in [5]; 3850 nM in assay [6]. Further, the GI50 was 1110 nM in assay [7], 854 nM in assay [8], 2490 nM in assay [9] and 9160 nM in assay [10]. In addition, the TGI in [1] is 11900 nM; in assay [2], 40000 nM; in [3], 35500 nM; in [4], greater than 100000 nM; in assay [5], 62300 nM; in assay [6], 16200 nM. Besides, the TGI in assay [7] is 5010 nM; in [8], 24600 nM; in assay [9] it was 21200 nM; in assay [10] it was 28900 nM.

Regarding `C=C1C(=O)O[C@H]2[C@H]1CC/C(COC(=O)CSCCSCC(=O)OC/C1=C/CC[C@@]3(C)O[C@H]3[C@H]3OC(=O)C(=C)[C@@H]3CC1)=C\CC[C@@]1(C)O[C@@H]21`, the GI50 in [1] is 1860 nM; in assay [2], 1770 nM; in [3], 2350 nM; in assay [4] it was 2380 nM; in assay [5], 2180 nM; in [6] it was 1640 nM. For the same molecule, the GI50 was 1550 nM in [7], 1410 nM in assay [8], 1360 nM in assay [9] and 1990 nM in assay [10]. Also, the TGI came out at 3820 nM in assay [1]; 3370 nM in assay [2]; 5600 nM in [3]; 6050 nM in [4]; 5220 nM in assay [5]; 3270 nM in assay [6]. Also, the TGI in [7] is 3030 nM; in [8], 2750 nM; in [9] it was 2680 nM; in assay [10] it was 4340 nM.
